Test results published in US20240325394A1, “SALT AND CRYSTAL FORM OF NITROGEN-CONTAINING HETEROCYCLIC DERIVATIVE, PREPARATION METHOD THEREFOR AND APPLICATION THEREOF” (SHANGHAI HANSOH BIOMEDICAL CO., LTD., priority 2020, published 2024).

Key:
[1] = Plasma stability, human plasma; type: in vitro ADME; settings: human, 0.5 μM
Protocol: (§1) Animal or human whole blood was collected, then the blood was put into a test tube containing anticoagulant, centrifuged at 3500 rpm for 10 min, and the upper layer of pale yellow plasma was collected. • 2) 10 μM of tested compound (m/M/V=C)
(§2) The compound was weighed, the stock solution was prepared with DMSO and the working solution was prepared with 100 mM phosphate buffer. • 3) 10 μM of positive control • (1) Propantheline (Propantheline Mr=449.4 Da)
(§3) • 1) 285 μL of plasma and 15 μL of 10 μM compound (tested compound) were added in turn in a 96-well plate, and incubated at 37° C. • 2) 40 μL was taken out at 0, 15, 30, 60, 90, 120 min, respectively, and 160 μL of acetonitrile termination solution containing internal standard was added. • 3) After centrifugation (3500 rpm, 10 min), 50 μL of supernatant was taken out, and then diluted with 50 μL DDH2O and injected to LC-MS/MS.
(§4) • instrument: Shimadzu LC-20 AD • chromatographic column: phenomenex Gemiu® C18 (50*4.6 mm, 5 μM particle size); • mobile phase: A: acetonitrile, B: 0.1% formic acid solution 0-8 min: 5% A→95% A, 2.0-2.1 min: 90% A→5% A; flow rate: 0.8 mL/min; running time: 5.0 min; injection volume: 5 μL.
(§5) • instrument: API4000 Liquid Chromatography-Mass Spectrometry, AB, USA; • the ion source was electrospray ionization source (ESI); • the temperature of dry gas (N2) was 500° C.; • electrospray voltage was 5500V; • the detection method was positive ion detection; • the scanning mode was selective response monitoring (MRM); • the scanning time was 0.1 s.

[2] = Plasma stability, rat plasma; type: in vitro ADME; settings: rat plasma, 37° C.
Protocol: as §1, §2, §3, §4, §5

[3] = Plasma stability, dog plasma; type: in vitro ADME; settings: dog plasma, 37° C.
Protocol: as §1, §2, §3, §4, §5

hERG potassium channel = molecular target: T1, hERG potassium channel (Homo sapiens, UniProt Q12809); experiment: hERG potassium channel inhibitory activity test (Qpatch, CHO-hERG cells); type: cell-based; settings: highest test concentration 40 μM, read-out: hERG (μM), inhibition at multiple concentrations on hERG current
T1 construct: expressed in transfected cells; host or cells: CHO-hERG cells
T1 sequence (Q12809 whole entry): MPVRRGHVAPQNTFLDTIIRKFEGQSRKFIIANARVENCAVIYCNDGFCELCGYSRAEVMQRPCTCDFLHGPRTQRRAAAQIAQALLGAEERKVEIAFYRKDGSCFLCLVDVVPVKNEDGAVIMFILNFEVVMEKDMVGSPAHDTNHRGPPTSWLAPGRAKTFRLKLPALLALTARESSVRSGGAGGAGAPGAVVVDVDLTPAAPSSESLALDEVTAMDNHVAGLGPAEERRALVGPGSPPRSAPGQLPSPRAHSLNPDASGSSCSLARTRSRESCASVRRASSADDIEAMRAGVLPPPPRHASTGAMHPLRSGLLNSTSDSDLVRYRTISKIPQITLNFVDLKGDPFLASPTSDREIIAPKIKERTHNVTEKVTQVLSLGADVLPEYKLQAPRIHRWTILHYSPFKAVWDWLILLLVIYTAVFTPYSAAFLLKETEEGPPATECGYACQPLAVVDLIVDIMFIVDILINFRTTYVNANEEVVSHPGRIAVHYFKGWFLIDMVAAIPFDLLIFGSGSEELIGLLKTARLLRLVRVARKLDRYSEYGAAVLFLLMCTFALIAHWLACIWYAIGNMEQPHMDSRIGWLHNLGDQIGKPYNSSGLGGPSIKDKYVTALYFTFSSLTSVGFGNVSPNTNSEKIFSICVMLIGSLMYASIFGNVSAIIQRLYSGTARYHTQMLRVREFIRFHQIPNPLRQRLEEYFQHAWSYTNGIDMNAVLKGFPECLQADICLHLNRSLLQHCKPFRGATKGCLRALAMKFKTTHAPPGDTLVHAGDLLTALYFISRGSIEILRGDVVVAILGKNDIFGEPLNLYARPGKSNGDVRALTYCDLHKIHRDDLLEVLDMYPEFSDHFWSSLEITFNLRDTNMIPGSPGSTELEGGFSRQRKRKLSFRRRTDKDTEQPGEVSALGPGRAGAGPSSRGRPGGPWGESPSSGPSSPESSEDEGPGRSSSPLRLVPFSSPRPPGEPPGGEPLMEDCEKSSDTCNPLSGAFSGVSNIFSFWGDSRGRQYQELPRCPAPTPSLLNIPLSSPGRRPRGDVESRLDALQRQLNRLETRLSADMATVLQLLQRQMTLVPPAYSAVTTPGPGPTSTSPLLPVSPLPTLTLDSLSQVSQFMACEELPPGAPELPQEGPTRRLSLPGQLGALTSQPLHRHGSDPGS
Protocol: 7.1.1 CHO-hERG cells were cultured in a 175 cm^2 flask, when the cell density reached 60-80%, the culture medium was removed, the cells were washed with 7 mL PBS, and then digested with 3 mL Detachin. 7.1.2 After complete digestion, 7 mL culture medium was added to neutralize, then the mixture was centrifuged, the supernatant was aspirated, and then 5 mL culture medium was added to re-suspend, ensuring 2-5×10^6/mL of cell density.
The process of single cell high impedance sealing and whole cell mode formation were all automatically completed by Qpatch instrument, after obtaining the whole cell recording mode, the cells were clamped at −80 mV, before giving a 5-second +40 mV depolarization stimulus, a 50 millisecond −50 mV prevoltage was given first, and then repolarized to −50 mV for 5 seconds, then returned to −80 mV. This voltage stimulation was applied every 15 seconds and recorded for 2 minutes before giving extracellular fluid recordings for 5 minutes, and then the administration process was started, the compound concentration was given from the lowest test concentration, each test concentration was given for 2.5 minutes, and the positive control compound 3 μM of Cisapride was given after all concentrations were continuously given. At least 3 cells (n≥3) were tested at each concentration.
7.4.1 20 mM of compound mother liquor was diluted with extracellular fluid, 5 μL of 20 mM compound mother liquor was added into 2495 μL of extracellular fluid and diluted 500-fold to 40 μM, and then the final concentration to be tested was obtained by sequential 3-fold serial dilutions in extracellular solution containing 0.2% DMSO. 7.4.2 The highest test concentration was 40 μM, in a total of 6 concentrations of 40, 13.33, 4.44, 1.48, 0.49 and 0.16 μM respectively. 7.4.3 The content of DMSO in the final test concentration was not more than 0.2%, and this concentration of DMSO had no effect on hERG potassium channel.
The experimental data were analyzed by XLFit software. […]

[4] = Plasma stability, mouse plasma; type: in vitro ADME; settings: mouse plasma, 37° C.
Protocol: as §1, §2, §3, §4, §5

C=CC(=O)N1C[C@H](C)N(c2nc(=O)n(-c3c(SC)ccnc3C(C)C)c3nc(-c4c(O)cccc4F)c(Cl)cc23)C[C@H]1C (atropisomer, axis not shown) [Embodiment 14-1, P-4-((2S,5R)-4-Acryloyl-2,5-dimethylpiperazin-1-yl)-6-chloro-7-(2-fluoro-6-hydroxyphenyl)-1-(2-isopropyl-4-(methylthio)pyridin-3-yl)pyrido[2,3-d]pyrimidin-2(1H)-one]
Residual rate (%) 0 min ([1]; 0 min): 100.00%
Residual rate (%) 15 min ([1]; 15 min): 99.15%
Residual rate (%) 30 min ([1]; 30 min): 94.74%
Residual rate (%) 60 min ([1]; 60 min): 89.14%
Residual rate (%) 120 min ([1]; 120 min): 78.85%
Residual rate (%) 0 min ([2]; 0 min): 100.00%
Residual rate (%) 15 min ([2]; 15 min): 93.20%
Residual rate (%) 30 min ([2]; 30 min): 98.32%
Residual rate (%) 60 min ([2]; 60 min): 99.08%
Residual rate (%) 120 min ([2]; 120 min): 96.46%
Residual rate (%) 0 min ([3]; 0 min): 100.00%
Residual rate (%) 15 min ([3]; 15 min): 99.98%
Residual rate (%) 30 min ([3]; 30 min): 98.79%
Residual rate (%) 60 min ([3]; 60 min): 93.69%
Residual rate (%) 120 min ([3]; 120 min): 86.16%
IC50 (hERG potassium channel): > 30 µM
Residual rate (%) 0 min ([4]; 0 min): 100.00%
Residual rate (%) 15 min ([4]; 15 min): 105.42%
Residual rate (%) 30 min ([4]; 30 min): 100.02%
Residual rate (%) 60 min ([4]; 60 min): 99.12%
Residual rate (%) 120 min ([4]; 120 min): 85.55%
